# Where two headings read alike, the source gives them in different places.
# Columns and labels:
# [1] = from COC(=O)[C@H](Cc1ccc(OC)c(B2OC(C)(C)C(C)(C)O2)c1)NC(=O)[C@H](C)NC(=O)[C@@H](NC(=O)OC(C)(C)C)c1ccc(OC)c(I)c1; cc_pd bond; PdCl2(dppf); acetonitrile; 70.3 mM; 44.0 °C; 3.0 h
# SpsB = molecular target: T1, SpsB (Staphylococcus aureus, UniProt P0A070); assay: Inhibition of SpsB enzyme activity (fluorescence-based assay, bacterial membrane fraction); type: biochemical
# T1 construct: using a bacterial membrane fraction as a source of SpsB; from tissue
# T1 sequence (P0A070 1-191): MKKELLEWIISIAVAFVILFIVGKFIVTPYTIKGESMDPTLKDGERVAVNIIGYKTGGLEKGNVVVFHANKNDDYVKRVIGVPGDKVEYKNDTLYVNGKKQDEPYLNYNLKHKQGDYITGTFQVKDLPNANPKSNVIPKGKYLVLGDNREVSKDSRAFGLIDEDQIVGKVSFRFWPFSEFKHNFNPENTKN
# Method in brief: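 Membrane fraction from bacteria supplied SpsB (0.6 mg/mL final protein), added last to start reactions with 20 μM lipopeptide substrate decanoyl-K(DABCYL)-TPTAKA↓ASKKD-D(EDANS)-NH2 (Km≈5 μM). Cleavage was followed as rising fluorescence, excitation 340/emission 460 nm.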
# [2] = system: MB 5393 (COL), a methicillin-resistant S. aureus strain; assay: Determination of minimum and synergistic inhibitory concentration; type: cell-based; details: for SIC: presence of imipenem (4 μg/mL); for MIC: Staphylococcus aureus
# Method in brief: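 Broth microdilution: two-fold compound dilutions (final 64 to 0.0313 μg/mL) tested with and without subinhibitory imipenem (4 μg/mL) against MRSA COL at ~5×10^5 CFU/mL, 37°C, 22-24 hr stationary. MIC is lowest concentration preventing visible growth without imipenem; SIC same with imipenem.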
# MRSA strain COL = assay: Checkerboard studies with imipenem; type: cell-based, Staphylococcus aureus; details: combined with Imipenem, FIG. 1
# Experimental: FIG. 1: An SpsB inhibitor and Imipenem synergize to inhibit bacterial growth in vitro. The MIC of SpsB inhibitor on the MRSA strain COL was assessed by varying the concentration of the compound (0.016-16 μg/ml) in the absence and presence of various concentrations of Imipenem (0.5-32 μg/ml) and FIC values were generated for both compounds.
# The checkerboard method is the technique most frequently used to assess antimicrobial combinations in vitro. See Antibiotics in Laboratory Medicine, Victor Lorian ed., 2005). The checkerboard comprises a two-dimensional dilution scheme: columns in which each well contains the same amount of Drug A being two-fold diluted along the x-axis, and rows in which each well contains the same amount of Drug B being two-fold diluted on the Y-axis. The result is that each well contains a unique combination of the two drugs being tested. Also tested is the antimicrobial activity of each agent singly.
# Imipenem was two-fold serially diluted along the Y-axis of 96-well U-bottom microtiter dishes (Fisher Scientific) in microbiological growth media (either brain heart infusion broth or cation-adjusted Mueller-Hinton broth +2% NaCl). […]
# In this representation, data are expressed as fractional inhibitory concentrations (FIC), defined as the ratio between the MIC of one compound in the presence of the other, over its MIC alone. […]
# [3] = system: Staphylococcus aureus (strain B, MRSA COL); assay: Disseminated MRSA infection mouse model; type: in vivo, mice BALB/c
# Experimental: (§1) Female mice BALB/c mice (20-25 g) were rendered neutropenic via intraperitoneal injection of cyclophosphamide (Mead Johnson Pharmaceuticals) on Day −4 (250 mg/kg, disseminated) or Days −4/−1 (150/100 mg/kg, deep thigh) prior to experimental infection. Neutropenic mice were infected on Day 0 via intraperitoneal (disseminated) or intramuscular (deep thigh) injection of 0.1 ml containing ˜1-5×10^4 CFU Staphylococcus aureus (strain B, MRSA COL). Linezolid (Zyvox IV solution, Bell Medical) was employed as an assay control. Fifteen minutes post infection, increasing doses of Example 3 (20, 40 and 80 mg/kg) or vehicle were administered subcutaneously (SC) TID with or without Imipenem/Cilastatin (6/50 mg/kg SC TID, disseminated; 10/50 mg/kg SC TID, deep thigh). Twenty four hours post dosing, mice were euthanized and infected kidneys (disseminated) or thighs (deep thigh) were aseptically removed, placed in 4 ml sterile phosphate buffered saline (Fisher Scientific), and homogenized using a Polytron (Brinkmann Instruments). Homogenates were serially 100-fold diluted in 9.9 ml sterile saline and plated on Mannitol Salt Agar plates. Plates were incubated at 35° C. for 48 hours and colony forming units (CFU) of bacteria remaining per thigh were determined.
# [4] = system: Staphylococcus aureus (strain B, MRSA COL); assay: Deep thigh MRSA infection mouse model; type: in vivo, mice BALB/c
# Experimental: as §1
# [5] = MRSA COL, absence of imipenem, 22 hours, read-out: MIC
Structure (SMILES),IC50 (SpsB) [µM],"SIC ([2]; MRSA COL, 22 hours)","MIC [2, 5] [µg/mL]",also measured
COC(=O)[C@@H]1Cc2ccc(OC)c(c2)-c2cc(ccc2OC)[C@H](NC(=O)OC(C)(C)C)C(=O)N[C@@H](C)C(=O)N1,–,–,–,"ring closure, yield of all isomers [1]: 20%"
"CCCc1ccc(-c2ccc(C(=O)NCCC(=O)N[C@@H](CCCCN)C(=O)N(C)[C@@H]3C(=O)N[C@@H](C)C(=O)N[C@H](C(=O)O)Cc4ccc(O)c(c4)-c4cc3ccc4O)cc2)cc1.O=C(O)C(F)(F)F [EXAMPLE 3, (5S)-6-[[(7S,10S,13S)-13-carboxy-3,18-dihydroxy-10-methyl-8,11-dioxo-9,12-diazatricyclo[13.3.1.1^2,6]icosa-1(19),2(20),3,5,15,17-hexaen-7-yl](methyl)amino]-6-oxo-5-[(3-{[(4′-propylbiphenyl-4-yl)carbonyl]amino}propanoyl)amino]hexan-1-aminium trifluoroacetate]",< 0.01,H (H: SIC 0.062-1),< 1,"synergy in isobologram (FIC) of bacterial growth (MRSA strain COL): synergistic effect; effect on MRSA COL bacterial burden ([3]; Example 3 alone, 20, 40 and 80 mg/kg SC TID, kidneys, relative to vehicle, FIG. 2A): negligible anti-bacterial effects; reduction in bacterial burden ([3]; co-administered with Imipenem/Cilastatin 6/50 mg/kg SC TID, disseminated): 2-3 log; effect on MRSA COL bacterial burden ([4]; Example 3 alone, 20, 40 and 80 mg/kg SC TID, thighs, relative to vehicle, FIG. 2B): negligible anti-bacterial effects; reduction in bacterial burden ([4]; co-administered with Imipenem/Cilastatin 10/50 mg/kg SC TID, deep thigh): 2-3 log"
"CCCCCCCCCCc1ccc2cc(C(=O)NCCC(=O)N3CC[C@H]3C(=O)N(C)[C@@H]3C(=O)N[C@@H](C)C(=O)N[C@H](C(=O)O)Cc4ccc(O)c(c4)-c4cc3ccc4O)ccc2c1 [EXAMPLE 20, (8S,11S,14S)-3,18-dihydroxy-11-methyl-14-(methyl[(2R)-1-{3-[(6-decyl-2-naphthoyl)amino]propanoylazetidin-2-yl]carbonyl}amino)-10,13-dioxo-9,12-diazatricyclo[13.3.1.1^2,6]icosa-1(19),2(20),3,5,15,17-hexaene-8-carboxylic acid]",< 0.01,G (G: SIC <0.0625),1 to 8,–
"CCCCCCCCCc1ccc(-c2ccc(C(=O)NCCC(=O)N3CCC[C@H]3C(=O)N(C)[C@@H]3C(=O)N[C@@H](C)C(=O)N[C@H](C(=O)O)Cc4ccc(O)c(c4)-c4cc3ccc4O)cc2)cc1 [EXAMPLE 18, (8S,11S,14S)-3,18-dihydroxy-11-methyl-14-(methyl{[(2)-1-(3-{[(4′-nonylbiphenyl-4-yl)carbonyl]amino}propanoyl)pyrrolidin-2-yl]carbonyl}amino)-10,13-dioxo-9,12-diazatricyclo[13.3.1.1^2,6]icosa-1(19),2(20),3,5,15,17-hexaene-8-carboxylic acid]",< 0.01,H (H: SIC 0.062-1),1 to 8,–
CCCCCCCCCCc1ccc2cc(C(=O)NCCC(=O)N[C@@H](CCCC(=O)O)C(=O)N(C)[C@@H]3C(=O)N[C@@H](C)C(=O)N[C@H](C(=O)O)Cc4ccc(O)c(c4)-c4cc3ccc4O)ccc2c1 [EXAMPLE 60],0.01 to 0.05,G (G: SIC <0.0625),1 to 8,–
C[C@@H]1NC(=O)[C@@H](N(C)C(=O)[C@H](CCCCN)NC(=O)CCNC(=O)c2coc(CCCCCCCCc3ccccc3)n2)c2ccc(O)c(c2)-c2cc(ccc2O)C[C@@H](C(=O)O)NC1=O [EXAMPLE 64],0.01 to 0.05,G (G: SIC <0.0625),–,"MIC ([2]; MRSA, 22 h): < 1 µg/mL"
CCCCCCCCCc1ccc(-c2ccc(C(=O)NCCC(=O)N[C@@H](CCCCN)C(=O)N(C)[C@@H]3C(=O)N[C@@H](C)C(=O)N[C@H](C(=O)O)Cc4ccc(O)c(c4)-c4cc3ccc4O)c(C)c2)cc1 [EXAMPLE 43],< 0.01,G (G: SIC <0.0625),–,"MIC ([2]; MRSA, 22 h): < 1 µg/mL"
